In ChEMBL document CHEMBL4627246, “Pyroglutamide-Based P2X7 Receptor Antagonists Targeting Inflammatory Bowel Disease” (J Med Chem, 2020):

Tests used:
Format in all cases: cell-based
786-0 = assay: Cytotoxicity against human 786-0 cells assessed as effect on cell growth at 10 uM incubated for 48 hrs by sulforhodamine B assay; details: 786-0, 48 h
ACHN = assay: Cytotoxicity against human ACHN cells assessed as effect on cell growth at 10 uM incubated for 48 hrs by sulforhodamine B assay
UACC-62 = assay: Cytotoxicity against human UACC62 cells assessed as effect on cell growth at 10 uM incubated for 48 hrs by sulforhodamine B assay; details: uacc-62, 48 h
DU-145 = assay: Cytotoxicity against human DU145 cells assessed as effect on cell growth at 10 uM incubated for 48 hrs by sulforhodamine B assay; details: du-145, 48 h
SNB-75 = assay: Cytotoxicity against human SNB75 cells assessed as effect on cell growth at 10 uM incubated for 48 hrs by sulforhodamine B assay; details: snb-75, 48 h
MDA-MB-231 = assay: Cytotoxicity against human MDA-MB-231 cells assessed as effect on cell growth at 10 uM incubated for 48 hrs by sulforhodamine B assay; details: mda-mb-231, 48 h
EKVX = assay: Cytotoxicity against human EKVX cells assessed as effect on cell growth at 10 uM incubated for 48 hrs by sulforhodamine B assay
OVCAR-5 = assay: Cytotoxicity against human OVCAR5 cells assessed as effect on cell growth at 10 uM incubated for 48 hrs by sulforhodamine B assay; details: ovcar-5, 48 h
RXF 393 = assay: Cytotoxicity against human RXF393 cells assessed as effect on cell growth at 10 uM incubated for 48 hrs by sulforhodamine B assay; details: rxf 393, 48 h
HL-60(TB) = assay: Cytotoxicity against human HL-60(TB) cells assessed as effect on cell growth at 10 uM incubated for 48 hrs by sulforhodamine B assay
SNB-19 = assay: Cytotoxicity against human SNB19 cells assessed as effect on cell growth at 10 uM incubated for 48 hrs by sulforhodamine B assay; details: snb-19, 48 h
HCT-15 = assay: Cytotoxicity against human HCT15 cells assessed as effect on cell growth at 10 uM incubated for 48 hrs by sulforhodamine B assay; details: hct-15, 48 h
MCF7 = assay: Cytotoxicity against human MCF7 cells assessed as effect on cell growth at 10 uM incubated for 48 hrs by sulforhodamine B assay; details: mcf7, 48 h
SK-MEL-5 = assay: Cytotoxicity against human SK-MEL-5 cells assessed as effect on cell growth at 10 uM incubated for 48 hrs by sulforhodamine B assay; details: sk-mel-5, 48 h
NCI-H522 = assay: Cytotoxicity against human NCI-H522 cells assessed as effect on cell growth at 10 uM incubated for 48 hrs by sulforhodamine B assay; details: nci-h522, 48 h
T47D = assay: Cytotoxicity against human T47D cells assessed as effect on cell growth at 10 uM incubated for 48 hrs by sulforhodamine B assay
HCC 2998 = assay: Cytotoxicity against human HCC2998 cells assessed as effect on cell growth at 10 uM incubated for 48 hrs by sulforhodamine B assay; details: hcc 2998, 48 h
UO-31 = assay: Cytotoxicity against human UO31 cells assessed as effect on cell growth at 10 uM incubated for 48 hrs by sulforhodamine B assay; details: uo-31, 48 h
SK-MEL-2 = assay: Cytotoxicity against human SK-MEL-2 cells assessed as effect on cell growth at 10 uM incubated for 48 hrs by sulforhodamine B assay; details: sk-mel-2, 48 h
IGROV-1 = assay: Cytotoxicity against human IGROV1 cells assessed as effect on cell growth at 10 uM incubated for 48 hrs by sulforhodamine B assay; details: igrov-1, 48 h

Measured: Activity

CN1C(=O)CC[C@H]1C(=O)NCc1cc(C(F)(F)F)ccc1Cl
Non-Toxic: all assays above

COc1cc(CN/C=C2\C[C@@H](C(=O)NCc3ccc(Cl)cc3Cl)NC2=O)cc(OC)c1OC
Non-Toxic: all assays above

CN(C)/C=C1\C[C@@H](C(=O)NCc2ccc(Cl)cc2Cl)N(c2cccs2)C1=O
Non-Toxic: all assays above

O=C(NCc1ccc(Cl)cc1Cl)[C@@H]1CCC(=O)N1Cc1ccc(Cl)cc1
Non-Toxic: all assays above

COc1ccccc1CN1C(=O)[C@@H]2C/C(=C\N(C)C)C(=O)N2C1N(C)C (stereo not given in full)
Non-Toxic: all assays above

CN(Cc1ccccc1)C(=O)[C@@H]1CCC(=O)N1Cc1ccc(Cl)cc1Cl
Non-Toxic: all assays above

COc1ccc(N2C(=O)CC[C@H]2C(=O)NCc2ccc(Cl)cc2Cl)cc1
Non-Toxic: all assays above

O=C(NCc1ccc(Cl)cc1Cl)[C@@H]1CCC(=O)N1C(c1ccc(Cl)cc1)c1ccc(Cl)cc1
Non-Toxic: all assays above

O=C(NCc1ccccc1Cl)[C@@H]1CCC(=O)N1Cc1ccccc1
Non-Toxic: all assays above

O=C(NCc1ccc(Cl)cc1Cl)[C@@H]1COC(=O)N1c1cccs1
Non-Toxic: all assays above

COc1ccc(CN2C(=O)[C@@H]3C/C(=C\N(C)C)C(=O)N3C2N(C)C)c(OC)c1 (stereo not given in full)
Non-Toxic: all assays above

COc1ccc(N2C(=O)[C@@H]3C/C(=C\N(C)C)C(=O)N3C2N(C)C)cc1 (stereo not given in full)
Non-Toxic: all assays above

O=C(NCc1ccccc1)[C@@H]1CCC(=O)N1Cc1ccc(Cl)cc1Cl
Non-Toxic: all assays above

Cc1ccc(NC(=O)[C@@H]2CCC(=O)N2c2ccccc2)cc1
Non-Toxic: all assays above
